US20240301000A1, “TETRAPEPTIDE DERIVATIVE,COSMETIC COMPOSITION OR PHARMACEUTICAL COMPOSITION AND USE THEREOF” (SHENZHEN WINKEY TECHNOLOGY CO., LTD, priority 2021, published 2024)
Residues, ends and D or L forms follow the SMILES beside them. *: point of attachment. X1 = O=C(OCc1cc(=O)c(O)co1)*; Nicotinoyl = O=C(c1cccnc1)*

What was measured:
Type in all cases: cell-based, Human
α-MSH = test: Cell assay for inhibition of α-MSH generation (ELISA, HaCaT supernatant); details: 100 ppm, 48 h; for statistical difference in the α-MSH inhibition compared with the control group: HaCaT (FIG. 2); for effect on α-MSH expression: HaCaT supernatant, compared with PBS control group (FIG. 2)
Procedure: Fetal bovine serum, DMEM medium, penicillin, streptomycin, and an α-MSH ELISA kit.
(§1) Human keratinocytes (HaCaT) were purchased from the Kunming Cell Bank of China Center for Type Culture Collection under the Chinese Academy of Sciences.
• 100 ppm of the reference peptide, 100 ppm of the peptide (1), 100 ppm of the peptide (3), 100 ppm of the peptide (5), 100 ppm of NA, 100 ppm of TXC, and 100 ppm of KA.
(§2) The frozen HaCaT cells were cultured and passaged at a ratio of 1:2 to about the 5th generation, and the cells in better growth were selected as experiment subjects.
When the cells were about 80% confluent, the samples were added to each group. In the control group, a PBS solution was added and supplemented with a culture medium to 1000 μL. In the drug groups, the diluted active substance and the culture medium were added to 1000 μL and the groups were further incubated in a 5% CO2 incubator at 37° C. for 48 h. After the completion of the culture, the solutions were centrifuged at 3000 rpm for 10 min, in each of which a cell supernatant was collected to obtain a sample liquid. Operations were performed according to the instructions of the α-MSH kit.
α-MSH can promote the formation of melanin by activating tyrosinase. Therefore, down-regulation of the α-MSH expression can reduce melanin generation and exert a whitening effect.

HaCaT cells = test: Cell viability assay (MTT) in HaCaT cells; details: 1, 10, 100 and 200 ppm, 72 h, compared with PBS control group (FIG. 1)
Text: as §1
• the peptide H-Pro-Lys-Glu-Lys-OH (hereinafter referred to as the reference peptide), at a test concentration of 1 ppm, 10 ppm, 100 ppm, and 200 ppm, respectively; • the peptide (1), at a test concentration of 1 ppm, 10 ppm, 100 ppm, and 200 ppm, respectively; • the peptide (3), at a test concentration of 1 ppm, 10 ppm, 100 ppm, and 200 ppm, respectively; • the peptide (5), at a test concentration of 1 ppm, 10 ppm, 100 ppm, and 200 ppm, respectively.
The purpose of this experiment is to evaluate cell viability 72 h after administration and determine the effect of the peptide derivatives of the present invention on cell viability by using HaCaT cells as the experiment subject.
as §2
The cells were inoculated in a 96-well plate at 2000 cells/well. After the cells adhered to the wall, samples of the drug groups and the control group were added according to the multiple dilution method, supplemented with a culture medium to 200 μL, and cultured in a 5% CO2 incubator at 37° C. for 72 h.
Then 20 μL 5 mg/ml MTT was added to each well and the incubation was continued in the 5% CO2 incubator at 37° C. for 4 h. The original solution was removed and DMSO was added at 150 μL/well. After 5 min, the microplate reader was used to read the reference OD values at 490 nm and 630 nm wavelengths.
The MTT assay is a method of detecting cell survival and growth. The measured OD values are directly proportional to cell viability.

IL-6 = test: Anti-inflammatory cell assay, UV-irradiated HaCaT cells, IL-6 ELISA; details: 50 ppm, 48 h after UV irradiation, compared with UV group (FIG. 3)
Procedure: (§3) Fetal bovine serum, DMEM medium, penicillin, streptomycin, an IL-6 ELISA kit and a TNF-α ELISA kit.
as §1
(§4) • 50 ppm of the reference peptide, 50 ppm of the peptide (1), 50 ppm of the peptide (3), and 50 ppm of the peptide (5).
as §2
(§5) When the cells were about 80% confluent, a model of inflammation stimulated by UV radiation was established. In the control group, a PBS solution was added and supplemented with the culture medium to 1000 μL, while no UV irradiation was performed; The UV group and the drug groups were exposed to an […] UV light. After irradiation, in the UV group the PBS solution and a culture medium were added to 1000 μL, and in the drug groups the diluted active substance and the culture medium were added to 1000 μL. The control group, the UV group, and the drug groups were further incubated in a 5% CO2 incubator at 37° C. for 48 h. After the completion of the culture, the solutions were centrifuged at 3000 rpm for 10 min, in each of which a cell supernatant was collected to obtain a sample liquid. […]

TNF-α = test: Anti-inflammatory cell assay, UV-irradiated HaCaT cells, TNF-α ELISA; details: 50 ppm, 48 h after UV irradiation, compared with UV group (FIG. 4)
Procedure: as §3, §1, §4, §2, §5

Molecule	statistical difference in the α-MSH inhibition compared with the control group (α-MSH)	effect on α-MSH expression (α-MSH)	effect on HaCaT cell viability (HaCaT cells)	effect on IL-6 expression (IL-6)	effect on TNF-α expression (TNF-α)
O=c1cc(CO)occ1O [KA, kojic acid]	no statistical difference	inhibited the α-MSH expression to a certain extent	–	–	–
O=C(O)c1cccnc1 [NA, niacin]	no statistical difference	inhibited the α-MSH expression to a certain extent	–	–	–
NCCCCC(NC(=O)C(CCC(=O)O)NC(=O)C(CCCCN)NC(=O)C1CCCN1C(=O)c1cccnc1)C(=O)O (stereo not drawn) [peptide (1), NA-Pro-Lys-Glu-Lys-OH] (Nicotinoyl-PKEK-OH; configuration not given here)	–	–	no significant effect	–	–
NCCCCC(NC(=O)C(CCC(=O)O)NC(=O)C(CCCCN)NC(=O)C1CCCN1C(=O)OCc1cc(=O)c(O)co1)C(=O)O (stereo not drawn) [peptide (5), KA-CO-Pro-Lys-Glu-Lys-OH] (X1-PKEK-OH; configuration not given here)	–	–	no significant effect	–	–
H-Pro-Lys-Glu-Lys-OH (H-PKEK-OH) [reference peptide]	no statistical difference	inhibited the α-MSH expression to a certain extent	–	significantly down-regulated	inhibited the TNF-α expression to a certain extent, but the inhibitory effect was not obvious
TXC-Pro-Lys-Glu-Lys-OH [peptide (3)]	–	significantly down-regulated	no significant effect	significantly down-regulated	significantly down-regulated
tranexamic acid [TXC]	–	inhibited the α-MSH expression to a certain extent	–	–	–
